Laboratory results as given in ChEMBL document CHEMBL4350990, “Benzensulfonamides bearing spyrohydantoin moieties act as potent inhibitors of human carbonic anhydrases II and VII and show neuropathic pain attenuating effects” (Eur J Med Chem, 2019).
Calls of active or inactive are those of the source. The rule behind the calls is not given here.

What was measured:
Carbonic anhydrase 2 = Carbonic anhydrase 2 (Homo sapiens, UniProt P00918); assay: Inhibition of human carbonic anhydrase 2 incubated for 15 mins prior to testing by stopped-flow CO2 hydration assay
Carbonic anhydrase 13 = Carbonic anhydrase 13 (Homo sapiens, UniProt Q8N1Q1); assay: Inhibition of human carbonic anhydrase 13 incubated for 15 mins prior to testing by stopped-flow CO2 hydration assay
Sequence of Carbonic anhydrase 13 (Q8N1Q1 whole entry): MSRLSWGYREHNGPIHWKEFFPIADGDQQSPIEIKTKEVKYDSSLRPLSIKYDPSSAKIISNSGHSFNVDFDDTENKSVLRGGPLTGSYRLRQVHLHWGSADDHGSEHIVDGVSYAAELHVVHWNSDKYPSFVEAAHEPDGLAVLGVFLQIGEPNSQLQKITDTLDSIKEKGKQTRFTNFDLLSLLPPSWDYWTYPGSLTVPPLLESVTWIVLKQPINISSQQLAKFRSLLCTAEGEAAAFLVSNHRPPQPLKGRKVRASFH

Carbonic anhydrase 9 = Carbonic anhydrase 9 (Homo sapiens, UniProt Q16790); assay: Inhibition of human carbonic anhydrase 9 incubated for 15 mins prior to testing by stopped-flow CO2 hydration assay
Carbonic anhydrase 7 = Carbonic anhydrase 7 (Homo sapiens, UniProt P43166); assay: Inhibition of human carbonic anhydrase 7 incubated for 15 mins prior to testing by stopped-flow CO2 hydration assay
Sequence of Carbonic anhydrase 7 (P43166 whole entry): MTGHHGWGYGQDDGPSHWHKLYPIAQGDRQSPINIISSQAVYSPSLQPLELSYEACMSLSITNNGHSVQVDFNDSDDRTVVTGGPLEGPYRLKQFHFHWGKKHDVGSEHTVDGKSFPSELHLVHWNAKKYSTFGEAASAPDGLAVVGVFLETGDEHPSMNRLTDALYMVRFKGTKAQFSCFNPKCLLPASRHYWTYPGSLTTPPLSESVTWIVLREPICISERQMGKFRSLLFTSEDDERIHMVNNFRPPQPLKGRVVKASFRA

Carbonic anhydrase 1 = Carbonic anhydrase 1 (Homo sapiens, UniProt P00915); assay: Inhibition of human carbonic anhydrase 1 incubated for 15 mins prior to testing by stopped-flow CO2 hydration assay
Sequence of Carbonic anhydrase 1 (P00915 whole entry): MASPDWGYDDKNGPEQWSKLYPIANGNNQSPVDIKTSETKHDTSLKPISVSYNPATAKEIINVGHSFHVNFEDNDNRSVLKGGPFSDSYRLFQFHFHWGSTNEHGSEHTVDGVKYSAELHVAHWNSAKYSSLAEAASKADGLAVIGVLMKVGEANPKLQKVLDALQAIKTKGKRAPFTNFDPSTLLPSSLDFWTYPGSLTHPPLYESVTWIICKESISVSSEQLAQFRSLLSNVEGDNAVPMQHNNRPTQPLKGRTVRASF

Carbonic anhydrase 6 = Carbonic anhydrase 6 (Homo sapiens, UniProt P23280); assay: Inhibition of human carbonic anhydrase 6 incubated for 15 mins prior to testing by stopped-flow CO2 hydration assay
Sequence of Carbonic anhydrase 6 (P23280 whole entry): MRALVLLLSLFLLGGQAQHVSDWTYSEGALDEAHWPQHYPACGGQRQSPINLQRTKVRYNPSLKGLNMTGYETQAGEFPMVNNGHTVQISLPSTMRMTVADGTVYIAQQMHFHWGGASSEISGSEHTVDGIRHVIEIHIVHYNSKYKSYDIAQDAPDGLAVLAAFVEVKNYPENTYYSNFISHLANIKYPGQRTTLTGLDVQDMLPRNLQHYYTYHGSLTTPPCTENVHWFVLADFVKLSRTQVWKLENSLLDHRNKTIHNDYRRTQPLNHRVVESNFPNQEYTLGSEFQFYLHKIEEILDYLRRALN

Carbonic anhydrase 12 = Carbonic anhydrase 12 (Homo sapiens, UniProt O43570); assay: Inhibition of human carbonic anhydrase 12 incubated for 15 mins prior to testing by stopped-flow CO2 hydration assay
Sequence of Carbonic anhydrase 12 (O43570 whole entry): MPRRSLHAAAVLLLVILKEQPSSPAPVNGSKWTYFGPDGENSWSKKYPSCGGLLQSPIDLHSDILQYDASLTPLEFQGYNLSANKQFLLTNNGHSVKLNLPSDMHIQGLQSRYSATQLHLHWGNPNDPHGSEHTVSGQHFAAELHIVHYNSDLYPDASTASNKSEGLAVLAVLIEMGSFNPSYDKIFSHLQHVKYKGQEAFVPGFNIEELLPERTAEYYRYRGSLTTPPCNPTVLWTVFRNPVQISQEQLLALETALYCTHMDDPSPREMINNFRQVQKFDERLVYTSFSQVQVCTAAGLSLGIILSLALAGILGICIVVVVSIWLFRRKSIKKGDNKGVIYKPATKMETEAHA

Carbonic anhydrase 3 = Carbonic anhydrase 3 (Homo sapiens, UniProt P07451); assay: Inhibition of human carbonic anhydrase 3 incubated for 15 mins prior to testing by stopped-flow CO2 hydration assay
Sequence of Carbonic anhydrase 3 (P07451 whole entry): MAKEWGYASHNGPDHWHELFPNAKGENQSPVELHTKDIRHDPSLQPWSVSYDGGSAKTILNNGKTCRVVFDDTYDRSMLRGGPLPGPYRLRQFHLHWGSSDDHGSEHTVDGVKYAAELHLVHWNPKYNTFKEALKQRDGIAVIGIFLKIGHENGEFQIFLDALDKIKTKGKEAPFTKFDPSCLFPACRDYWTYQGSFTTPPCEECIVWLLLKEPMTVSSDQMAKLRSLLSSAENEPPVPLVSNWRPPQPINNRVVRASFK

[1] = biological target: Carbonic anhydrase 5A, mitochondrial (Homo sapiens, UniProt P35218); assay: Inhibition of human carbonic anhydrase 5A incubated for 15 mins prior to testing by stopped-flow CO2 hydration assay
Sequence of Carbonic anhydrase 5A, mitochondrial (P35218 whole entry): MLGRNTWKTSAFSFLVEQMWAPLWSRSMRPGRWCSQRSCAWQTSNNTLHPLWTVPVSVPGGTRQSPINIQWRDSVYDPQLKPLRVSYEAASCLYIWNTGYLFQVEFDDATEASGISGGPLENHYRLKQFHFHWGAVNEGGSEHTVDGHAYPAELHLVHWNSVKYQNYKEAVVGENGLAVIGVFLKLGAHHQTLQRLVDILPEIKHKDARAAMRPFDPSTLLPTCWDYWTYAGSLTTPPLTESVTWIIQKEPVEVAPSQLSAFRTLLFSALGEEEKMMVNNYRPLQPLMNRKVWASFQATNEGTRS

[2] = biological target: Carbonic anhydrase 5B, mitochondrial (Homo sapiens, UniProt Q9Y2D0); assay: Inhibition of human carbonic anhydrase 5B incubated for 15 mins prior to testing by stopped-flow CO2 hydration assay
Sequence of Carbonic anhydrase 5B, mitochondrial (Q9Y2D0 whole entry): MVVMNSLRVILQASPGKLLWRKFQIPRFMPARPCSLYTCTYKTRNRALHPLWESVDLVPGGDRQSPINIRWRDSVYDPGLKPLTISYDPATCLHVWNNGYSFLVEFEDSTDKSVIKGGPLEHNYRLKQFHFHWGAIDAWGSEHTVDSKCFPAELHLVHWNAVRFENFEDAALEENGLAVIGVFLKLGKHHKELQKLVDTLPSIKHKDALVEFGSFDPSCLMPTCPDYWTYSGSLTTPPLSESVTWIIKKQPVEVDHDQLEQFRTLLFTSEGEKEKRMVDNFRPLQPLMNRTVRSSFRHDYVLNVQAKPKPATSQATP

Carbonic anhydrase 4 = Carbonic anhydrase 4 (Homo sapiens, UniProt P22748); assay: Inhibition of human carbonic anhydrase 4 incubated for 15 mins prior to testing by stopped-flow CO2 hydration assay
Sequence of Carbonic anhydrase 4 (P22748 whole entry): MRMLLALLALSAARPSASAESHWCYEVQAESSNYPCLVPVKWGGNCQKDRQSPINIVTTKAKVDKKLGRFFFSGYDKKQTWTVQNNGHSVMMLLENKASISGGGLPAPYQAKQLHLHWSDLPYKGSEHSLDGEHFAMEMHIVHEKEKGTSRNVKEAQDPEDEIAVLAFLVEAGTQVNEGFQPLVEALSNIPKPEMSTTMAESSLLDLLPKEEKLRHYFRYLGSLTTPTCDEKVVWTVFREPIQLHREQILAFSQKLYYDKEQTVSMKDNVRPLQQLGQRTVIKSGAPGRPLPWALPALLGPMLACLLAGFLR

Mus musculus [3] = assay: Analgesic activity in oxaliplatin-induced neuropathic pain CD-1 albino mouse model assessed as licking latency at 30 to 100 mg/kg, po treated on day 15 post oxaliplatin treatment by cold plate test; format: functional, organism-based
Mus musculus [4] = assay: Analgesic activity in oxaliplatin-induced neuropathic pain CD-1 albino mouse model assessed as decrease in pain-related behaviour measured as licking latency at 100 mg/kg, po treated on day 15 post oxaliplatin treatment and measured after 45 mins by cold plate test; format: functional, organism-based
Mus musculus [5] = assay: Analgesic activity in oxaliplatin-induced neuropathic pain CD-1 albino mouse model assessed as decrease in pain-related behaviour measured as licking latency at 100 mg/kg, po treated on day 15 post oxaliplatin treatment and measured after 45 to 60 mins by cold plate test; format: functional, organism-based
Mus musculus [6] = assay: Analgesic activity in orally dosed oxaliplatin-induced neuropathic pain CD-1 albino mouse model assessed as decrease in pain-related behaviour measured as licking latency treated on day 15 post oxaliplatin treatment by cold plate test; format: functional, organism-based

SMILES	Ki (Carbonic anhydrase 2) [nM]	Ki (Carbonic anhydrase 13) [nM]	Ki (Carbonic anhydrase 9) [nM]	Ki (Carbonic anhydrase 7) [nM]	Ki (Carbonic anhydrase 1) [nM]	Ki (Carbonic anhydrase 6) [nM]	Ki (Carbonic anhydrase 12) [nM]	Ki (Carbonic anhydrase 3) [nM]	Ki [1] [nM]	Ki [2] [nM]	Ki (Carbonic anhydrase 4) [nM]	Activity (Mus musculus [3])	Activity (Mus musculus [4])	Activity (Mus musculus [5])	Activity (Mus musculus [6])
NS(=O)(=O)c1ccc(CCNC(=O)CN2C(=O)NC3(CCCCCC3)C2=O)cc1	0.71	> 10000	33.1	5.1	491	> 10000	62.9	> 10000	6180	> 10000	6490	–	–	–	–
CC1CCCC2(C1)NC(=O)N(CC(=O)Nc1ccc(S(N)(=O)=O)cc1)C2=O (stereo not given)	0.8	5780	2.6	1.5	80.3	–	39.7	–	–	–	–	–	–	–	–
NS(=O)(=O)c1ccc(C[Se]c2ccc(NC(=O)CN3C(=O)NC4(CCCCC4)C3=O)cc2)cc1	19.6	> 10000	3.3	0.2	63.6	–	4.1	–	–	–	–	–	–	–	–
NS(=O)(=O)c1ccc(CCNC(=O)CN2C(=O)NC3(CCCC3)C2=O)cc1	6.9	> 10000	122	4.7	6330	> 10000	6.2	> 10000	3940	> 10000	9660	–	–	–	–
NS(=O)(=O)c1ccc(CNC(=O)CN2C(=O)NC3(CCCC3)C2=O)cc1	1.5	2170	93	3.6	2770	–	9.6	–	–	–	–	–	–	–	–
CC1CCCC2(C1)NC(=O)N(CC(=O)NCc1ccc(S(N)(=O)=O)cc1)C2=O (stereo not given)	8.3	> 10000	229	4.4	853	–	33.3	–	–	–	–	–	–	–	–
CC1CCCC2(C1)NC(=O)N(CC(=O)Nc1ccc([Se]Cc3ccc(S(N)(=O)=O)cc3)cc1)C2=O (stereo not given)	0.7	767	17.8	4.7	62.3	–	8.6	–	–	–	–	–	Active	–	–
CC1CCCC2(C1)NC(=O)N(CC(=O)NCCc1ccc(S(N)(=O)=O)cc1)C2=O (stereo not given)	0.7	> 10000	477	3	306	> 10000	83.4	> 10000	8680	> 10000	7190	–	–	–	–
NS(=O)(=O)c1ccc(C[Se]c2ccc(NC(=O)CN3C(=O)NC4(CCCCCC4)C3=O)cc2)cc1	22.8	88.4	6.4	4.7	384	–	49.4	–	–	–	–	–	Active	–	–

Second part, led by results:

Ki (Carbonic anhydrase 2) [nM]	Ki (Carbonic anhydrase 13) [nM]	Ki (Carbonic anhydrase 9) [nM]	Ki (Carbonic anhydrase 7) [nM]	Ki (Carbonic anhydrase 1) [nM]	Ki (Carbonic anhydrase 6) [nM]	Ki (Carbonic anhydrase 12) [nM]	Ki (Carbonic anhydrase 3) [nM]	Ki [1] [nM]	Ki [2] [nM]	Ki (Carbonic anhydrase 4) [nM]	SMILES	Activity (Mus musculus [3])	Activity (Mus musculus [4])	Activity (Mus musculus [5])	Activity (Mus musculus [6])
47.1	> 10000	3.5	3.7	649	–	62.3	–	–	–	–	NS(=O)(=O)c1ccc(CNC(=O)CN2C(=O)NC3(CCCCCC3)C2=O)cc1	–	–	–	–
1.2	> 10000	4.3	0.8	237	–	42.8	–	–	–	–	NS(=O)(=O)c1ccc(NC(=O)CN2C(=O)NC3(CCCCCC3)C2=O)cc1	–	–	–	–
3.1	809	3.3	1.3	7.5	–	46.6	–	–	–	–	NS(=O)(=O)c1ccc(NC(=O)CN2C(=O)NC3(CCCCC3)C2=O)cc1	inactive	–	–	–
7.1	7410	76.7	6.9	626	> 10000	86.6	> 10000	534	7320	8010	NS(=O)(=O)c1ccc(CCNC(=O)CN2C(=O)NC3(CCCCC3)C2=O)cc1	–	–	–	–
20.7	> 10000	105	5.4	470	–	728	–	–	–	–	NS(=O)(=O)c1ccc(CNC(=O)CN2C(=O)NC3(CCCCC3)C2=O)cc1	–	–	–	–
0.7	> 10000	11.9	0.8	141	–	53.7	–	–	–	–	NS(=O)(=O)c1ccc(NC(=O)CN2C(=O)NC3(CCCC3)C2=O)cc1	–	–	Active	Dose-dependent effect
